Assay results: patent US20220339127A1, “DRUGGABLE TARGET TO TREAT RETINAL DEGENERATION” (The United States of America,as represented by the …, priority 2019, published 2022)
“Also recorded” adds a separate entry of the source.

Tests used:
[1] = test system: AMPK; experiment: Phospho-AMPK ELISA in iPSC-RPE of L-ORD patients and unaffected siblings; type: cell-based, human; conditions: L-ORD patient iPSC-RPE, 3 mM metformin, 1½-2 weeks
Description: Thus, in FIG. 16b iPSC-RPE were incubated with recombinant CTRP5 globular form (0.2 μg/mL gCTRP5) for 30 min in the presence (+) and absence (−) of serum to evaluate its role in AMPK signaling.
To better elucidate the ADIPOR1-CTRP5 (receptor-ligand) interaction, […] a ligand dose response curve was performed (in serum free media) by exogenously adding increasing concentrations of recombinant full length CTRP5 (FIG. 16c).
AMPK is a sensitive indicator of the cell energy status and is canonically activated by the levels of AMP or ATP (Hardie and Lin, 2017). Therefore, the AMPK activity (in serum free media) of sibling and patient iPSC-RPE under conditions (increased AMP:ATP ratio) known to stimulate AMPK phosphorylation was characterized (FIG. 16d). iPSC-RPE were incubated in serum deprived media for 5 hours (Park et al., 2009) followed by 30 mins exposure to AICAR (an AMP analogue) or BAM15 (a mitochondrial uncoupler to reduce ATP production).
(§1) Metformin treatment consisted of 3 mM metformin added to the apical and basal media for 1½- 2 weeks.

[2] = test system: iPSC-RPE; experiment: VEGF secretion ELISA under normoxia; type: cell-based, human; conditions: L-ORD patients, metformin 3 mM for 1½ to 2 weeks
Description: Polarized secretion of cytokines by the RPE is a hallmark of their mature and differentiated state. Under conditions that promote epithelial to mesenchymal transition (EMT), RPE lose their morphology and their secretion becomes mispolarized. Dedifferentiation of the RPE is a frequently proposed mechanism in retinal degenerations such as AMD. Typically VEGF is primarily secreted basally by the RPE. In L-ORD patients, the polarity of VEGF secretion is lost as assessed by ELISA.

[3] = test system: AMPK signaling pathway; experiment: Gene expression of AMPK signaling pathway in L-ORD patient RPE; type: cell-based, human; conditions: metformin 3 mM for 1½ to 2 weeks
Description: Treatment with metformin (3 mM) for 1½ to 2 weeks results in further decrease in some genes but an upregulation in others. […] In the RPE, the PEDF-R plays an important role in fatty acid metabolism.

[4] = test system: iPSC-RPE; experiment: VEGF secretion ELISA under hypoxic conditions; type: cell-based, human; conditions: for VEGF secretion, apical (Ap) / VEGF secretion, basal (Ba): hypoxic conditions (6h)
Description: Hypoxic stress (3% 02, 6h) was employed to determine how this perturbation regulates VEGF secretion in L-ORD patient iPSC-RPE.

[5] = test system: iPSC-RPE; experiment: APOE deposition in POS-fed iPSC-RPE (integrated density); type: cell-based, human; conditions: for integrated density of APOE signal, apical / integrated density of APOE signal, basal: 7-days POS feeding
Description: (§2) Patient iPSC-RPE were treated daily beginning with the first day of POS feeding with 3 mM metformin (Fan et al., 2015; Kim et al., 2011).
White arrow indicates basal increase in APOE deposits reminiscent of APOE-rich drusen deposits in AMD (Johnson et al., 2011). […] Image J was used to draw a rectangular region of interest around the apical and basal APOE-positive staining to quantify the localized mean integrated intensity and the data is summarized in FIG. 18d.

[6] = test system: L-ORD patient RPE; experiment: Apical beta-hydroxybutyrate (B-hB) secretion by RPE; type: cell-based, human
Description: The inventors have hypothesized that increasing fatty acid oxidation and ketone body formation (B-hB) may lead to decreased lipid accumulation in the sub retinal space.
as §1

[7] = Mass-spectrometry analysis of metformin in eyes and plasma of treated animals; type: in vivo, mouse; conditions: oral dosing, data not shown
[8] = test system: L-ORD patient iPSC-RPE; experiment: Expression of EMT-related genes in POS-fed L-ORD patient iPSC-RPE; type: cell-based, human
Description: POS feeding for 7-days also altered the expression profiles of 85 EMT-related genes in L-ORD patient iPSC-RPE (FIG. 18g).

[9] = test system: patients with AMD; experiment: Retrospective cohort study of AMD patients concurrently using metformin; type: in vivo, human; conditions: patients ages 50-59, with metformin (n=16); 56 without (n=157)
Description: To determine whether there is clinical evidence that metformin could be beneficial in the treatment of AMD, a retrospective cohort study of patients presenting to Kaiser Permanante Medical with AMD was performed to test whether concurrent use of metformin by individuals affected diagnosis.
To determine whether there is clinical evidence that metformin could be beneficial in the treatment of AMD a retrospective cohort study was performed of patients presenting to Kaiser Permanante Medical with AMD to test whether concurrent use of metformin by individuals affected diagnosis.

[10] = test system: Stargardt iRPE; experiment: Ceramide levels in POS fed Stargardt iRPE; type: cell-based, human
[11] = test system: Abca4−/− mice; experiment: Abca4−/− mouse model, oral metformin, RPE/choroid flat-mount bodipy lipid stain
[12] = test system: iPSC-RPE; experiment: Cell area of POS-fed iPSC-RPE (ZO-1 staining, REShAPE); type: cell-based, human
Description: Accumulating evidence implicates disrupted lipid metabolism as a common pathogenic mechanism in a host of diseases including AMD (Ban et al., 2018; Xu et al., 2018). These metabolic defects are linked to long term health of RPE cells. To determine the consequence of PEDF-R deficiency in RPE cells, L-ORD iPSC-RPE and unaffected siblings were subjected to 7-day photoreceptor outersegment (POS) feeding to exacerbate the high fat-induced epithelial impairment. Concomitantly, it was investigated whether the lipid-lowering effects of metformin, an anti-diabetic drug (Schneider et al., 1990), could reverse RPE dedifferentiation and loss of polarity. Cell size, a key morphological indicator of RPE polarity, was evaluated by staining for ZO-1 (green) to identify cell borders (FIG. 18a) and employing automated image analysis algorithms in REShAPE (a cloud-computing based cell morphometry analyzer) to perform morphometric analysis of RPE cells.
as §2

[13] = L-ORD patient RPE, prior metformin 2 weeks
[14] = untreated or metformin treated unaffected siblings
[15] = metformin treated L-ORD patients
[16] = metformin treated unaffected siblings

SMILES: CN(C)C(=N)N=C(N)N [metformin]
- sensitivity of p-AMPK to changes in the AMP:ATP ratio / AICAR [1]: restored sensitivity to AICAR; also recorded: regained sensitivity to AICAR; also recorded: restores the sensitivity
- polarized VEGF secretion [2]: rescue of polarized VEGF secretion
- polarized VEGF secretion ([2]; listed as Metformin): rescues mispolarized secretion of VEGF
- PNPLA2 (PEDF-R) expression [3]: significant increase
- hypoxia-induced apical VEGF secretion ([4]; 1½ week pretreatment with metformin): alleviated the hypoxia-induced apical VEGF secretion
- VEGF secretion, apical (Ap) [4, 13]: 0.59±0.09
- VEGF secretion, basal (Ba) [4, 13]: 1.8±0.24
- VEGF secretion, apical (Ap) [4, 14]: 0.98±0.16
- VEGF secretion, basal (Ba) [4, 14]: 1.64±0.33
- rescue of mispolarized VEGF secretion ([4]; hypoxic stress (3% O2, 6h), metformin for 24h, data not shown): insufficient to rescue this phenotype
- apical and basal APOE deposition ([5]; L-ORD patient RPE treated with metformin during POS feeding): ameliorate the accumulation of APOE-containing basal deposits; also recorded: redistribution of the relative proportions of apical and basal APOE deposition
- integrated density of APOE signal, apical [5, 15]: 79.30±37.51
- integrated density of APOE signal, basal [5, 15]: 13.58±4.58
- integrated density of APOE signal, apical [5, 16]: 119.98±20.36
- integrated density of APOE signal, basal [5, 16]: 23.55±6.17
- increase in apical B-hB secretion ([6]; L-ORD patient RPE, 3 mM metformin 1½-2 weeks): 25%
- beta-hydroxybutyrate apical secretion ([6]; metformin treatment): increased beta-hydroxybutyrate apical secretion
- amount of metformin in RPE/choroid, retina, and plasma [7]: comparable amount
- number of EMT genes downregulated ([8]; L-ORD patient iPSC-RPE treated with metformin, <4-fold as printed): 42 genes
- expression of EMT related genes ([8]; metformin during 7-days POS feeding): suppresses the expression of EMT related genes
- age of onset of nonexudative age-related macular degeneration [9]: 58.5 years of age
- reduction of ceramide levels vs vehicle ([10]; 3 mM metformin, wild type POS for 6 consecutive days): 3-4 fold
- ceramide accumulation ([10]; POS-Fed Stargardt iRPE treated with metformin): dramatic reduction
- hypoglycemia in treated mice ([11]; oral metformin 400 or 800 mg/day): do not lead to hypoglycemia
- lipid levels / deposits in RPE/choroid flat-mount ([11]; oral metformin 400 or 800 mg/day for three months): drastically reduced lipid levels; also recorded: reduced deposits
- POS stress-induced enlargement of patient iPSC-RPE ([12]; 3 mM metformin daily from first day of POS feeding): largely prevented the POS stress-induced enlargement
- cell area ([12]; L-ORD patient iPSC-RPE, 3 mM metformin during 7 days POS feeding): 117.92±0.96 um
- cell area ([12]; unaffected siblings, metformin during 7 days POS feeding): 93.14±1.56 um
